pIC50: −log10 of the molar value.

IC50, EC50 and Ki data for seven molecules are collected here from patent publication US11453671B2, “Pyrazolopyrimidine inhibitors of JAK kinases and uses thereof” (Genentech, Inc., priority 2020, dated 2022).

The subject of data set [1] is JAK1: IL-13-stimulated STAT6 phosphorylation in BEAS-2B cells. The experiment in a line: P-STAT6 BEAS-2B+IL-13 Cell Assay. In kind it is cell-based, human. Particulars: Homo sapiens, BEAS-2B, IL-13 stimulation, read-out: Cellular JAK1 PSTAT6 BEAS2B + IL13 IC50. In outline: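 BEAS-2B cells in BEGM preincubated 1 h at 37 °C with 10-point, 1:2 compound dilutions, then stimulated 15 min with IL-13 (250 ng/mL stock). Lysate pSTAT6 (Tyr641) captured on total-STAT6 antibody and read by MSD electrochemiluminescence; IC50 from four-parameter logistic fit.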

Data set [2] is described as follows: Cell cytotoxicity assay HEK-293T (CellTiter-Glo, 72 hours). To be noted: human, HEK-293T cells, Table 3; 72 hours, top concentration of 50 μM; read-out: Cytotox K-293 EC50. In kind it is cell-based. In outline:
(§1)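 HEK-293T or Jurkat E6-1 cells plated at 450 cells/well were treated the next day with a 10-point titration from 50 μM top (0.5% DMSO final). After 72 h at 37° C, viability was read by CellTiter-Glo luminescence.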
In general terms: Cellular ATP, detected with luciferase, serves as a proxy for viable cell number.

Data set [3] can be described thus: Cell cytotoxicity assay Jurkat (CellTiter-Glo, 72 hours). To be noted: human, Jurkat clone E6-1 cells, Table 3; 72 hours, top concentration of 50 μM; read-out: Cytotox Jurkat EC50. In kind it is cell-based. The gist of the method:
as §1

Data set [4] can be described thus: Cell cytotoxicity assay A549 (CellTiter-Glo, 72 hours). It counts as cell-based. To be noted: human, A549 cells, Table 3; 72 hours, top concentration of 50 μM; read-out: Cytotox A549 EC50. The gist of the method:
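A549 cells were plated overnight, then exposed for 72 h at 37 °C to a 10-point compound titration (top 50 μM, 0.5% DMSO final). Viability was read as CellTiter-Glo luminescence after 20 min at room temperature.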

Data set [5] has as its target Recombinant human JAK2 kinase domain protein (Residues 812-1132) (Homo sapiens, UniProt O60674). The experiment in a line: JAK2 biochemical assay (microfluidic mobility shift, peptide phosphorylation). Particulars: Enzyme JAK2 Ki (nM), 25 μM ATP, 0.2 nM total JAK2.
Method: JAK1 and JAK2 Biochemical Assays
The in vitro biochemical assays quantify JAK-catalyzed phosphorylation of a synthetic peptide, as detected using a LabChip® EZ Reader II microfluidic mobility shift instrument (PerkinElmer; Waltham, Mass.). […] Y-1B is fluorescently labeled on the N-terminus with 5-FAM (5-carboxyfluorescein) and contains a single tyrosine residue (Y) that can be phosphorylated by JAK activity. The substrate peptide stock is prepared in DMSO at 5 mM.
In each titration experiment, test compound was tested in duplicate at each of the twelve concentrations. Blank reactions contained ATP, peptide, and DMSO, but no JAK or test compound, whereas uninhibited control reactions contained ATP, peptide, JAK, and DMSO, but no test compound.
Peptide plus ATP mixture (24 μL) was added to 1 μL of test compound in DMSO (or DMSO alone). The reactions were initiated by adding 25 μL of JAK enzyme to the inhibitor/peptide/ATP mixture before thoroughly mixing the resultant solution. Reactions were incubated at room temperature (22° C.-23° C.) in a final volume of 50 μL per well in 384-well plates.
In each reaction, the residual Y-1B substrate and the phospho-peptide product generated were separated using the EZ Reader II instrument. Electrophoretic separation of molecules of product from molecules of substrate was achieved using downstream and upstream voltages of −500 and −2600 V, respectively, at an operating pressure of −1.3 psi.
The extent (or percent) of conversion of substrate to product was calculated from the corresponding peak heights in the electropherogram using HTS Well Analyzer software, Version 5.2 (PerkinElmer), and the following equation (Equation 1): % conversion=[P÷(S+P)]×100 Equation 1 where S and P represent the peak heights of the substrate and product, respectively. After any baseline signal from blank wells containing no JAK was subtracted from the signal of all test wells, the % conversion data were converted to fractional activity as shown in Equation 2, where vi and vo are the % conversion in the presence and absence of test compound, respectively.

Chain of Recombinant human JAK2 kinase domain protein (Residues 812-1132) (O60674 812-1132): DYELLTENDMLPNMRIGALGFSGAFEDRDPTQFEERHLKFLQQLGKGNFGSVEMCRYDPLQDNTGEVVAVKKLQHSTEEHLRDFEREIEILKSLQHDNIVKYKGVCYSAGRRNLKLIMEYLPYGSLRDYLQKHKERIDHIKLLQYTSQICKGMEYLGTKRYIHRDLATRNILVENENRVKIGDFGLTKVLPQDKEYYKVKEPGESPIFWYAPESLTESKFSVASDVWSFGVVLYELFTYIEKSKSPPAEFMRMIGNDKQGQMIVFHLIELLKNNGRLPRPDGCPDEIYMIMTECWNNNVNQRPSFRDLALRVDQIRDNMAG

Broadly, the pIC50 is the IC50 on a negative log10 scale, so that one unit is a factor of ten. A word on the EC50: it is the midpoint of the concentration-response curve. One may read the Ki as the dissociation constant of the complex between target and ligand, obtained from inhibition or displacement. On to `CN(C)CCS(=O)(=O)c1ccc(OC(F)F)c(-c2nn(C)cc2NC(=O)c2cnn3cccnc23)c1` [Example 7, N-[3-[2-(difluoromethoxy)-5-[2-(dimethylamino)ethylsulfonyl]phenyl]-1-methyl-pyrazol-4-yl]pyrazolo[1,5-a]pyrimidine-3-carboxamide], for which, in data set [1], the negative-log IC50 (pIC50) is 7.49. Also, the EC50 at 72 h in data set [2] stood at 6900 nM; in data set [3] it was 2100 nM; in data set [4] it was 4100 nM. Moreover, the inhibition constant (Ki) in data set [5] turned out to be 0.49 nM.
Take `CN(CCO)S(=O)(=O)c1ccc(OC(F)F)c(-c2nn(C)cc2NC(=O)c2cnn3cccnc23)c1` [Example 73, N-(3-(2-(difluoromethoxy)-5-(N-(2-hydroxyethyl)-N-methylsulfamoyl)phenyl)-1-methyl-1H-pyrazol-4-yl)pyrazolo[1,5-a]pyrimidine-3-carboxamide]: the negative-log IC50 (pIC50) in data set [1] was 7.28. Further, the EC50 at 72 h in data set [2] was 2900 nM; in data set [3] it was 8400 nM; in data set [4], ≥ 50000 nM. Further, in data set [5], the Ki was 0.21 nM.
As to `Cn1cc(NC(=O)c2cnn3cccnc23)c(-c2cc(S(=O)(=O)N3CCC3)ccc2OC(F)F)n1` [Example 21, N-[3-[5-(azetidin-1-ylsulfonyl)-2-(difluoromethoxy)phenyl]-1-methyl-pyrazol-4-yl]pyrazolo[1,5-a]pyrimidine-3-carboxamide], the pIC50 in data set [1] is 7.85. Moreover, the EC50 at 72 h is 4800 nM in data set [2], 11000 nM in data set [3] and 7500 nM in data set [4]. In addition, in data set [5], the inhibitory constant (Ki) stood at 0.16 nM.
Regarding `C[C@@H](O)CS(=O)(=O)c1ccc(OC(F)F)c(-c2nn(C)cc2NC(=O)c2cnn3cccnc23)c1` (stereo in doubt) [Example 25, N-[3-[2-(difluoromethoxy)-5-[rac-(2R)-2-hydroxypropyl]sulfonyl-phenyl]-1-methyl-pyrazol-4-yl]pyrazolo[1,5-a]pyrimidine-3-carboxamide], the pIC50 in data set [1] was 7.70. The 50% effective concentration (EC50) at 72 h in data set [2] is 48000 nM; in data set [3] it was ≥ 50000 nM; in data set [4] it was ≥ 50000 nM. Besides, the inhibition constant (Ki) in data set [5] turned out to be 0.2 nM.
`CN(C)S(=O)(=O)c1ccc(OC(F)F)c(-c2nn(C)cc2NC(=O)c2cnn3cccnc23)c1` [Example 30, N-[3-[2-(difluoromethoxy)-5-(dimethylsulfamoyl)phenyl]-1-methyl-pyrazol-4-yl]pyrazolo[1,5-a]pyrimidine-3-carboxamide]: the pIC50 in data set [1] was 7.96. The EC50 at 72 h stood at 2400 nM in data set [2], 9200 nM in data set [3] and 6100 nM in data set [4]. Further, the Ki in data set [5] was determined as 0.14 nM.
As to `Cn1cc(NC(=O)c2cnn3cccnc23)c(-c2cc(S(=O)(=O)C3COC3)ccc2OC(F)F)n1` [Example 13, N-[3-[2-(difluoromethoxy)-5-(oxetan-3-ylsulfonyl)phenyl]-1-methyl-pyrazol-4-yl]pyrazolo[1,5-a]pyrimidine-3-carboxamide], the negative logarithm of the IC50 (pIC50) in data set [1] is 7.48. Also, the results for the 50% effective concentration (EC50) at 72 h in data set [2], in data set [3] and in data set [4] were 31000 nM, ≥ 50000 nM and 44000 nM, respectively. In addition, in data set [5], the Ki worked out at 0.19 nM.
In the case of `CN(C)CCn1cc(S(=O)(=O)c2ccc(OC(F)F)c(-c3nn(C)cc3NC(=O)c3cnn4cccnc34)c2)cn1` [Example 49, N-[3-[2-(difluoromethoxy)-5-[1-[2-(dimethylamino)ethyl]pyrazol-4-yl]sulfonyl-phenyl]-1-methyl-pyrazol-4-yl]pyrazolo[1,5-a]pyrimidine-3-carboxamide], the negative logarithm of the IC50 (pIC50) in data set [1] is 7.55. Also, the EC50 at 72 h in data set [2] came to 14000 nM; in data set [3], 24000 nM; in data set [4], 33000 nM. In data set [5], the Ki worked out at 0.37 nM.
